# Measured values taken from patent US4889860A (Nova Pharmaceutical Corporation, priority 1987, dated 1989).
# Where two headings read alike, the source gives them in different places.
# Experiments:
# [1] = target: T1, kappa-type opioid receptor (Cavia porcellus, UniProt P41144); experiment: inhibition of specific [^3 H] EKC binding to guinea pig cerebellum membrane
# T1 construct: using guiniea pig cerebellum membrane; from tissue; host or cells: guinea pig cerebellum membranes
# [2] = water intake in 24 hr food-deprived rats; assay type: in vivo, rat; conditions: for Water Intake: Table 3, 24 hr; for Cumulative Water Intake: Table 5
# Method: (§1) Rats were given water and powdered food ad lib for 8 days until food intake had stabilized, and body weight and food and water intakes were recorded at the same time every day. Animals were assigned to treatment groups matched on the basis of their 24 hr food consumption on the last baseline day, and rats were food deprived for 24 hr immediately before injection of the test compound. […] The compound of Example XII was injected S.C. at doses of 1.15, 2.31, 11.55 and 23.09 μmol/kg, in a volume of 4 ml/kg of 0.3% acetic acid. Controls were injected with the vehicle solutions in the appropriate volumes. Food and water intakes were measured at 1, 3 and 24 hr after treatment. Data for each measure and time point were analyzed by one-way analysis of variance (ANOVA), and post-hoc comparisons were performed using Dunnett's test in order to compare the control mean to each of the treatment means.
# (§2) Rats were given water and powdered food for 8 days, and following this,
# (§3) Testing was performed as described above, and baseline measurements were recorded for 7 days. […] The compound of Example XII was injected at doses of 11.55, 23.09, 46.19 and 92.38 μmol/kg by suspension in a solution of 1:1 DMSO:water in a volume of 3 ml/kg. Food and water intakes were recorded at 1, 2, 4 and 6 h following treatment.
# See Table 3 for experimental details, except that baseline measurements
# [3] = conditioned taste aversion in rats; assay type: in vivo, rat; conditions: for conditioned taste aversion (milk intake, preference ratio): I.P., day 10
# Method: The ability of a compound to inhibit feeding may not be related to its anorectic properties, but rather to the ability of that compound to produce a conditioned taste aversion. This possibility was tested in the following experiment. Animals were adapted to water deprivation by restricting their access to water to a single 30 min presentation occurring at the same time every day. Baseline water intakes were determined for 7 days until intakes had stabilized, and animals were assigned to treatment groups based on their intakes on the final baseline day. On the following day (day 8), all rats received a bottle of condensed milk (diluted 2:1 water:milk) in place of the water, and intakes were recorded for 30 min. Fifteen minutes after the milk was removed, rats were administered an I.P. injection of vehicles, LiCl (299.6 μmol/kg) or the compound of Example XII (1.15, 2.31, 11.55 and 23.09 μmol/kg). The compound of Example XII was dissolved in 0.3% acetic acid in a volume of 4 ml/kg. LiCl was dissolved in saline, and serves as a positive control, since it is a compound that reliably produces a strong conditioned taste aversion. This procedure was repeated on day 9. On day 10, all rats were given a two-bottle choice of water or the milk:water solution, and intakes were recorded for 30 min. Data for each experiment were analyzed by one-way ANOVA, and post-hoc comparisons were performed using Dunnett's test.
# The effects of the compound of Example XII in producing a conditioned taste aversion are illustrated in FIGS. 28 and 29. In FIGS. 28 and 29 the data represent the mean ±SEM for each group. **=p<0.01 (Dunnett's test). Abbreviations: SAL, saline; AA, 0.3% acetic acid in distilled water; LiCl, lithium chloride. Doses of the compound of Example XII for each group are expressed in μmole/kg. The number of animals per group: SAL, 4: AA, LiCl and each dose of Example XII, 5. FIG. 28: Total milk intake in ml on day 10. FIG. 29: Preference ratio on day 10.
# [4] = food intake in 24 hr food-deprived rats; assay type: in vivo, rat; conditions: for Food Intake in Grams: Table 3, 24 hr; for Cumulative Food Intake in Grams: Table 4
# Method: as §1, §2, §3
# See Table 3 for experimental details, except that baseline measures were […]
# [5] = target: delta-type opioid receptor (Rattus norvegicus, UniProt P33533); experiment: inhibition of specific [^3 H] DADLE binding to rat forebrain membranes
# delta-type opioid receptor, sequence (P33533 whole entry): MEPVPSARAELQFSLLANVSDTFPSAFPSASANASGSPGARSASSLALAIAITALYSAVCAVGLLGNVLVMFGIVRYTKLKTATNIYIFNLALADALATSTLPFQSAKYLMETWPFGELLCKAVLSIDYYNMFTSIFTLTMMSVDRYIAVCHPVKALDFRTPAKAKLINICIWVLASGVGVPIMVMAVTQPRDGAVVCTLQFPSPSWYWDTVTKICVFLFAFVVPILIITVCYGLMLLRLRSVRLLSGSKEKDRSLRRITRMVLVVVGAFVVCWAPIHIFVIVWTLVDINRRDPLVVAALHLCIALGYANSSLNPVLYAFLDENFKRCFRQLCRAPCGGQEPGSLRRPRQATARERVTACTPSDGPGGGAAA
# T1 sequence (P41144 whole entry): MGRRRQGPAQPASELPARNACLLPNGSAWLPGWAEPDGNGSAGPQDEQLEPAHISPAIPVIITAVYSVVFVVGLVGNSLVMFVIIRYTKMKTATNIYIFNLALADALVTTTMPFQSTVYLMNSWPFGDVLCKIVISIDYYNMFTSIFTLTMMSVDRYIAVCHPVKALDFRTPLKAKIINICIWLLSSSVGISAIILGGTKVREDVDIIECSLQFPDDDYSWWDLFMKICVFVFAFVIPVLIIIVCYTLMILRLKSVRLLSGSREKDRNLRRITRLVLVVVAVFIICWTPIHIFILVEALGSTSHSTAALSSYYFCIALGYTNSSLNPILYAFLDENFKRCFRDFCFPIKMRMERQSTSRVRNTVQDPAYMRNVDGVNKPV
smiles,measurement,setting,value
"Oc1ccc2c3c1O[C@H]1C(=NOc4ccccc4)CC[C@@]4(O)[C@@H](C2)N(CC2CC2)CC[C@]314 [Example XII, 6-Phenyloximino-17-cyclopropylmethyl-4,5 α-epoxy-3, 14-dihydroxymorphinan]",Ki,[1],3.47 nM
same,Water Intake,[2]; S.C. 1.15 μmol/kg,68.3 ± 8.8 mL
same,Water Intake,[2]; S.C. 2.31 μmol/kg,65.0 ± 6.2 mL
same,Water Intake,[2]; S.C. 11.55 μmol/kg,60.3 ± 2.1 mL
same,Water Intake,[2]; S.C. 23.09 μmol/kg,62.8 ± 3.6 mL
same,Cumulative Water Intake,"[2]; S.C. 11.55 μmol/kg, 0-1 Hr",4.8 ± 1.1 mL
same,Cumulative Water Intake,"[2]; S.C. 11.55 μmol/kg, 0-2 Hr",8.0 ± 1.2 mL
same,Cumulative Water Intake,"[2]; S.C. 11.55 μmol/kg, 0-4 Hr",15.6 ± 2.5 mL
same,Cumulative Water Intake,"[2]; S.C. 11.55 μmol/kg, 0-6 Hr",22.0 ± 1.6 mL
same,Cumulative Water Intake,"[2]; S.C. 23.09 μmol/kg, 0-1 Hr",4.0 ± 1.0 mL
same,Cumulative Water Intake,"[2]; S.C. 23.09 μmol/kg, 0-2 Hr",7.2 ± 0.6 mL
same,Cumulative Water Intake,"[2]; S.C. 23.09 μmol/kg, 0-4 Hr",13.2 ± 2.3 mL
same,Cumulative Water Intake,"[2]; S.C. 23.09 μmol/kg, 0-6 Hr",19.6 ± 2.2 mL
same,Cumulative Water Intake,"[2]; S.C. 46.19 μmol/kg, 0-1 Hr",5.2 ± 0.9 mL
same,Cumulative Water Intake,"[2]; S.C. 46.19 μmol/kg, 0-2 Hr",8.0 ± 1.6 mL
same,Cumulative Water Intake,"[2]; S.C. 46.19 μmol/kg, 0-4 Hr",15.2 ± 1.5 mL
same,Cumulative Water Intake,"[2]; S.C. 46.19 μmol/kg, 0-6 Hr",20.8 ± 2.9 mL
same,Cumulative Water Intake,"[2]; S.C. 92.38 μmol/kg, 0-1 Hr",4.0 ± 0.7 mL
same,Cumulative Water Intake,"[2]; S.C. 92.38 μmol/kg, 0-2 Hr",7.6 ± 0.8 mL
same,Cumulative Water Intake,"[2]; S.C. 92.38 μmol/kg, 0-4 Hr",15.2 ± 1.8 mL
same,Cumulative Water Intake,"[2]; S.C. 92.38 μmol/kg, 0-6 Hr",21.2 ± 2.1 mL
same,"conditioned taste aversion (milk intake, preference ratio)",[3],totally ineffective in producing a conditioned taste aversion
same,"conditioned taste aversion (milk intake, preference ratio)",[3]; listed as Compound XII,inability of various doses
same,general malaise,[3]; doses up to 23.09 μmol/kg,does not appear to cause any general malaise at doses up to 23.09 μmol/kg
same,Food Intake in Grams,[4]; S.C. 1.15 μmol/kg,33.3 ± 1.6 Grams
same,Food Intake in Grams,[4]; S.C. 2.31 μmol/kg,31.0 ± 2.0 Grams
same,Food Intake in Grams,[4]; S.C. 11.55 μmol/kg,41.7 ± 7.4 Grams
same,Food Intake in Grams,[4]; S.C. 23.09 μmol/kg,37.6 ± 5.6 Grams
same,Cumulative Food Intake in Grams,"[4]; S.C. 11.55 μmol/kg, 0-1 Hr",2.0 ± 1.0 Grams
same,Cumulative Food Intake in Grams,"[4]; S.C. 11.55 μmol/kg, 0-2 Hr",2.0 ± 1.0 Grams
same,Cumulative Food Intake in Grams,"[4]; S.C. 11.55 μmol/kg, 0-4 Hr",2.8 ± 0.9 Grams
same,Cumulative Food Intake in Grams,"[4]; S.C. 11.55 μmol/kg, 0-6 Hr",3.6 ± 1.3 Grams
same,Cumulative Food Intake in Grams,"[4]; S.C. 23.09 μmol/kg, 0-1 Hr",2.0 ± 0.7 Grams
same,Cumulative Food Intake in Grams,"[4]; S.C. 23.09 μmol/kg, 0-2 Hr",2.4 ± 0.8 Grams
same,Cumulative Food Intake in Grams,"[4]; S.C. 23.09 μmol/kg, 0-4 Hr",3.6 ± 1.5 Grams
same,Cumulative Food Intake in Grams,"[4]; S.C. 23.09 μmol/kg, 0-6 Hr",3.6 ± 1.5 Grams
same,Cumulative Food Intake in Grams,"[4]; S.C. 46.19 μmol/kg, 0-1 Hr",2.8 ± 0.6 Grams
same,Cumulative Food Intake in Grams,"[4]; S.C. 46.19 μmol/kg, 0-2 Hr",2.8 ± 0.6 Grams
same,Cumulative Food Intake in Grams,"[4]; S.C. 46.19 μmol/kg, 0-4 Hr",3.2 ± 0.6 Grams
same,Cumulative Food Intake in Grams,"[4]; S.C. 46.19 μmol/kg, 0-6 Hr",3.6 ± 0.8 Grams
same,Cumulative Food Intake in Grams,"[4]; S.C. 92.38 μmol/kg, 0-1 Hr",3.2 ± 0.6 Grams
same,Cumulative Food Intake in Grams,"[4]; S.C. 92.38 μmol/kg, 0-2 Hr",3.2 ± 0.6 Grams
same,Cumulative Food Intake in Grams,"[4]; S.C. 92.38 μmol/kg, 0-4 Hr",4.0 ± 0.7 Grams
same,Cumulative Food Intake in Grams,"[4]; S.C. 92.38 μmol/kg, 0-6 Hr",4.8 ± 1.1 Grams
same,Ki,"[5]; read-out: (Ki) nM, δ receptor (Rat Forebrain), Table 6, [^3 H] DADLE, mean of three experiments",0.58 nM
same,Ki,"[5]; read-out: Ki, inhibition of specific [^3 H] DADLE binding, Tables 1 and 2, rat brain membranes, MEAN±S.E.M.",1.7 ± 0.51 nM
